Measurements reported in publication PMC9814779, “A triple farnesoid X receptor and peroxisome proliferator-activated receptor α/δ activator reverses hepatic fibrosis in diet-induced NASH in mice” (Communications Chemistry, 2020).

Tested on: GAN DIO-NASH mice
Assay: DIO NASH model in mice (GAN diet)
Settings: for animals with fibrosis worsening / animals with improvement in lobular inflammation / animals with reversed fibrosis: animals/group; for inflammatory cells and inflammatory foci in the liver: compared to vehicle; for liver Galectin-3 (Gal3) and liver CD45: markers of inflammation
Method: The DIO NASH model was performed by the contract research organization Gubra (Hørsholm, Denmark) on a fee-for-service basis. All animal experiments were conducted in accordance with Gubra’s bioethical guidelines, which are fully compliant to internationally accepted principles for the care and use of laboratory animals. The animals were checked minimum once daily for signs of abnormal behavior, abnormal locomotor activity, ataxia, or clinical signs of disease (lack of grooming, raised fur, signs of pain upon handling, loss of excessive body weight).
Male C57BL/6JRj mice (purchased from Janvier Labs, France at 5 weeks of age) were used for the study. […] Mice received the Gubra AMLN NASH (GAN; D09100310, Research Diet, US; 40% fat (primarily palm oil), 40% carbohydrate (20% fructose), and 2% cholesterol) diet for 46 weeks before start of the treatment. Prior to treatment, all animals underwent liver biopsy for histological conformation of liver disease (steatosis score ≥2 and fibrosis stage ≥1) using the non-alcoholic fatty liver disease activity scoring (NAS) and fibrosis staging system. Randomization and stratification to treatment was performed according to quantitative collagen staining (PSR). GAN DIO-NASH mice (n = 16 per group) received treatment (PO) with vehicle, OCA (30 mg/kg), or 41 (10 mg/kg, BID) for 12 weeks. Water containing 1% HPMC/Tween 80 (99:1) served as vehicle. Mice were then sacrificed by cardiac puncture under isoflurane anesthesia for histopathological and biochemical analysis.
For pre-biopsies, mice were anesthetized by inhalation anesthesia using isoflurane (2–3%). A small abdominal incision was made in the midline and the left lateral lobe of the liver was exposed. A cone-shaped wedge of liver tissue (approximately 50 mg) was excised from the distal portion of the lobe and fixated in 10% neutral buffered formalin (10%) for histology. The cut surface of the liver was instantly electrocoagulated using bipolar coagulation (ERBE VIO 100 electrosurgical unit). The liver was returned to the abdominal cavity, the abdominal wall was sutured, and the skin was closed with staplers. […] TG, TC, ALT, and AST levels were determined from blood samples collected at week 4 of treatment in heparinized tubes. Plasma was separated and stored at −80 °C until analysis. […] After termination by heart puncture, livers were collected and weighed. Specific liver samples and biopsies were dissected and processed. The liver was divided into left lateral lobe, medial lobe, right lateral lobe, and caudal lobe. The left lateral lobe was used for the pre-biopsy (not applicable at termination). The liver post biopsy (~200 mg, <0.7 × 0.5 cm) was cut 4 mm from the pre-biopsy site and with an edge. The tissue was collected in paraformaldehyde. The medial lobe was sectioned and snap-frozen in liquid nitrogen for later analysis. One piece (25 ± 5 mg) was dissected and used for TG/TC analysis. […] Liver samples were fixed in formalin, paraffin embedded, and sections were stained. For H&E staining, the slides were incubated in Mayer’s Hematoxylin (Dako), washed in tap water, stained in Eosin Y solution (Sigma-Aldrich), […], and cover-slipped. For PSR staining, the slides were incubated in Weigert’s iron hematoxylin (Sigma-Aldrich), washed in tap water, stained in PSR (Sigma-Aldrich), and washed twice in acidified water. Excess water was removed by shaking the slides, and the slides were then dehydrated in three changes of 100% ethanol, cleared in xylene, and cover-slipped. […] Briefly, after antigen retrieval and blocking of endogenous peroxidase activity, slides were incubated with primary antibody. The primary antibody was detected using a polymeric horseradish peroxidase–linker antibody conjugate. Next, the primary antibody was visualized with 3,3′diaminobenzidine as chromogen. Finally, sections were counterstained in hematoxylin and cover-slipped. Samples were scored for NAS following the criteria outlined in[37].

[1] = 41 10 mg/kg b.i.d., OCA 30 mg/kg
[2] = 12 weeks of treatment, 41 10 mg/kg b.i.d., OCA 30 mg/kg
[3] = 12 weeks, 41 10 mg/kg b.i.d., OCA 30 mg/kg

Structure (SMILES)	plasma biochemical parameters after 4 weeks of treatment [1]	plasma ALT, AST and triglycerides (TG) at termination [2]	plasma total cholesterol (TC) at termination (12 weeks of treatment, OCA 30 mg/kg)	liver weight, liver TG and liver TC content [3]	steatosis, hepatic fat content [3]	animals not completing the study (OCA 30 mg/kg, one animal)	animals with fibrosis worsening [3]	animals with improvement in lobular inflammation [3]	animals with reversed fibrosis [3]	inflammatory cells and inflammatory foci in the liver (12 weeks)	liver Galectin-3 (Gal3) and liver CD45 (12 weeks)	food intake and body weight (12 weeks, 41 10 mg/kg b.i.d., vs. OCA or vehicle)	liver picrosirius red (PSR), pre vs. post treatment (after the treatment period, 41 10 mg/kg b.i.d.)	fibrosis markers PSR, Col1a1 and α-SMA (compared to vehicle-treated animals, 12 weeks)
CC[C@H]1[C@@H](O)[C@@H]2[C@H](CC[C@]3(C)[C@@H]([C@H](C)CCC(=O)O)CC[C@@H]23)[C@@]2(C)CC[C@@H](O)C[C@@H]12 [OCA, 6α-ethylchenodeoxycholic acid, reference compound]	reduced total cholesterol (TC) plasma levels	not different between groups	reduced TC levels	lowered liver weight, liver TG, and liver TC	strongly reduced hepatic fat content and steatosis score	found dead during the second week of the treatment phase	4/15	8/15	2/15	decreased the number of inflammatory cells and inflammatory foci	reduced by both treatments	–	–	–
CC(C)(C)c1ccc(C(=O)Nc2cccc(CCC(=O)O)c2)c(NC(=O)c2ccc(-c3ccco3)cc2)c1 [compound 41, 3-(3-[4-{tert-Butyl}-2-{4-(2-furyl)}benzamido]phenyl)propanoic acid]	not significantly different between the groups	not different between groups	–	did not differ from vehicle-treated mice	no pronounced effect on steatosis	–	1/16	5/16	6/16	decreased the number of inflammatory cells and inflammatory foci	reduced by both treatments	no difference in food intake and body weight	significant reduction of liver picrosirius red (PSR)	decreased
